The values that follow come from patent US20100144760A1, “NOVEL COMPOUNDS” (priority 2008, published 2010).

One test deals with T1, human Orexin-1 receptor (Homo sapiens, UniProt O43613).
T1 sequence (O43613 1-425 A280G): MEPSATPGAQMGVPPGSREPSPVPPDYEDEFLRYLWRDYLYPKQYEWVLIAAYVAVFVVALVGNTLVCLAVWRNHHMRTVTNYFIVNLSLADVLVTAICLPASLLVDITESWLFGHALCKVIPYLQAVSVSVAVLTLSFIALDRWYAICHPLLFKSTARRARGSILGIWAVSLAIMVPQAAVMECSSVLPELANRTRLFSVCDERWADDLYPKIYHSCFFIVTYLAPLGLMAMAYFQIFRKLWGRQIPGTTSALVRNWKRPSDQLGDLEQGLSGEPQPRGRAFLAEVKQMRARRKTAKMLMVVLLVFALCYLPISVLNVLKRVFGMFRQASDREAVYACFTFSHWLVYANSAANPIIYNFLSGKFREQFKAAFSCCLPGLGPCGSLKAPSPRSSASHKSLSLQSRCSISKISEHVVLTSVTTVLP
Nature of the test: Antagonist affinity at human Orexin-1 receptor using FLIPR ([Ca2+]i). To be noted: functional pKi from IC50 by modified Cheng-Prusoff correction. It is filed as cell-based. From the text: (§1) Determination of antagonist affinity at human Orexin-1 and 2 receptors using FLIPR
(§2) Adherent Chinese Hamster Ovary (CHO) cells, stably expressing the recombinant human Orexin-1 or human Orexin-2 receptors or Rat Basophilic Leukaemia Cells (RBL) stably expressing recombinant rat Orexin-1 or rat Orexin-2 receptors were maintained in culture in Alpha Minimum Essential Medium (Gibco/Invitrogen, cat. no.; 22571-020), supplemented with 10% decomplemented foetal bovine serum (Life Technologies, cat. no. 10106-078) and 400 μg/mL Geneticin G418 (Calbiochem, cat. no. 345810). Cells were grown as monolayers under 95%:5% air: CO2 at 37° C.
(§3) The sequences of the human orexin 1, human orexin 2, rat orexin 1 and rat orexin 2 receptors used in this example were as published in Sakurai, T. et al (1998) Cell, 92 pp 573 to 585. Some examples were tested against the human orexin 1 receptor as published in Sakurai et al supra with the exception that the amino acid residue at position 280 was alanine and not glycine.
(§4) Cells were seeded into black clear-bottom 384-well plates (density of 20,000 cells per well) in culture medium as described above and maintained overnight (95%:5% air:CO2 at 37° C.). On the day of the experiment, culture medium were discarded and the cells washed three times with standard buffer (NaCl, 145 mM; KCl, 5 mM; HEPES, 20 mM; Glucose, 5.5 mM; MgCl2, 1 mM; CaCl2, 2 mM) added with Probenecid 2.5 mM. The plates were then incubated at 37° C. for 60 minutes in the dark with 2 μM FLUO-4AM dye to allow cell uptake of the FLUO-4AM, which is subsequently converted by intracellular esterases to FLUO-4, which is unable to leave the cells. After incubation, cells were washed three times with standard buffer to remove extracellular dye and 30 μL of buffer were left in each well after washing.
(§5) Compounds of the invention were tested in a final assay concentration range from 1.66×10^−5M to 1.58×10^−11M. Compounds of the invention were dissolved in dimethylsulfoxide (DMSO) at a stock concentration of 10 mM. These stock solutions were serially diluted with DMSO and 1 μL of each dilution was transferred to a 384 well compound plate. Immediately before introducing compound to the cells, buffer solution (50 μl/well) was added to this plate. To allow agonist stimulation of the cells, a stock plate containing a solution of human orexin A (hOrexin A) was diluted with buffer to final concentration just before use. This final concentration of hOrexin A was equivalent to the calculated EC80 for hOrexinA agonist potency in this test system. This value was obtained by testing hOrexinA in concentration response curve (at least 16 replicates) the same day of the experiment.
(§6) The loaded cells were then incubated for 10 min at 37° C. with test compound. The plates were then placed into a FLIPR™ (Molecular Devices, UK) to monitor cell fluorescence (λex=488 nm, λEM=540 nm) (Sullivan E, Tucker E M, Dale I L. Measurement of [Ca^2+]i using the fluometric imaging plate reader (FLIPR). In: Lambert DG (ed.), Calcium Signaling Protocols. New Jersey: Humana Press, 1999, 125-136). A baseline fluorescence reading was taken over a 5 to 10 second period, and then 10 μL of EC80 hOrexinA solution was added. The fluorescence was then read over a […] period.
Functional responses using FLIPR were measured as peak fluorescence intensity minus basal fluorescence and expressed as a percentage of a non-inhibited Orexin-A-induced response on the same plate. Iterative curve-fitting and parameter estimations were carried out using a four parameter logistic model and Microsoft Excel (Bowen W P, Jerman J C. Nonlinear regression using spreadsheets. Trends Pharmacol. Sci. 1995; 16: 413-417). […]

In another test the target is T2, human Orexin-2 receptor (Homo sapiens, UniProt O43614).
T2 construct: expressed in transfected cells
T2 sequence (O43614 1-444): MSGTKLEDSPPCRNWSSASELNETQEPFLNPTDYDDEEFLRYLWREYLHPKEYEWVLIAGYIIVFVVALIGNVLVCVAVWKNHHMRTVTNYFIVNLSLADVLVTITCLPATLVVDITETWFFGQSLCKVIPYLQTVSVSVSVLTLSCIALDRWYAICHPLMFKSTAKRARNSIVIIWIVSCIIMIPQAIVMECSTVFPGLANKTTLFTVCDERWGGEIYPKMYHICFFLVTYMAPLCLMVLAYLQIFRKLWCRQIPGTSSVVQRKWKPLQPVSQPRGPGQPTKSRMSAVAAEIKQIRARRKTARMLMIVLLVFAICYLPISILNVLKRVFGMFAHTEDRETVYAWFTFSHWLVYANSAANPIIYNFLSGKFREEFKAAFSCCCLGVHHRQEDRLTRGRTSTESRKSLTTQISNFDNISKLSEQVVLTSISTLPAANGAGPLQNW
Nature of the test: Antagonist affinity at human Orexin-2 receptor using FLIPR ([Ca2+]i). It counts as cell-based. To be noted: functional pKi from IC50 by modified Cheng-Prusoff correction, read-out: fpKi Orexin 2 receptor (converted).
From the text: as §1, §2, §3, §4, §5, §6
Functional responses using FLIPR were measured as peak fluorescence intensity minus basal fluorescence and expressed as a percentage of a non-inhibited Orexin-A-induced response on the same plate. Iterative curve-fitting and parameter estimations were carried out using a four parameter logistic model and Microsoft Excel (Bowen W P, Jerman J C. Nonlinear regression using spreadsheets. Trends Pharmacol. Sci. 1995; 16: 413-417).

The test system of test [1] is rats. To be noted: cited from earlier work.
The test system of test [2] is rats. The following applies: cited from earlier work. This is another data set of the same source.
For test [3], the system named is rats. To be noted: central administration at the onset of the normal sleep period; cited from earlier work.
Another test deals with freely-feeding rats. To be noted: central administration, 4 hour time period; cited from earlier work.

Ends that are not written are not given here.

On to `CCOc1ccc(C)nc1C(=O)N1C[C@@H]2C[C@@H]2C[C@H]1CNc1ncc(C)cn1` [Example 55, N-[((1R,4S,6R)-3-{[3-(ethyloxy)-6-methyl-2-pyridinyl]carbonyl}-3-azabicyclo[4.1.0]hept-4-yl)methyl]-5-methyl-2-pyrimidinamine], for which, on human Orexin-1 receptor, the “fpKi Orexin 1 receptor” value came to 9.1. Besides, the Ki on human Orexin-2 receptor was 100 nM. The matching figures for `Cc1ccc(-c2ncccc2C)c(C(=O)N2C[C@@H]3C[C@@H]3C[C@H]2CNc2ccc(C(F)(F)F)cn2)n1` [Example 51, N-({(1R,4S,6R)-3-[(3,6′-dimethyl-2,3′-bipyridin-2′-yl)carbonyl]-3-azabicyclo[4.1.0]hept-4-yl}methyl)-5-(trifluoromethyl)-2-pyridinamine]: 9.2 and 15.8 nM.

Take `Cc1nc2ccc(NC(=O)Nc3ccnc4cccnc34)cc2o1` [SB334867]: the high-fat pellet self-administration entry with rats [1] is “attenuated”. In the test with rats [2], the hedonic eating result is “potently reduced”.

Consider `Cc1coc(-c2ccc(C)nc2C(=O)N2C[C@@H]3C[C@@H]3C[C@H]2CNc2ncc(C(F)(F)F)cn2)n1` [Example 59, N-[((1R,4S,6R)-3-{[6-methyl-3-(4-methyl-1,3-oxazol-2-yl)-2-pyridinyl]carbonyl}-3-azabicyclo[4.1.0]hept-4-yl)methyl]-5-(trifluoromethyl)-2-pyrimidinamine], for which the “fpKi Orexin 1 receptor” value on human Orexin-1 receptor is recorded as 6.0. For the same compound, the Ki at human Orexin-2 receptor was 1580 nM. Consider `Cc1ccc(NC[C@@H]2C[C@H]3C[C@H]3CN2C(=O)c2nc(C)ccc2OCC2CC2)nc1` [Example 54, N-{[(1R,4S,6R)-3-({3-[(cyclopropylmethyl)oxy]-6-methyl-2-pyridinyl}carbonyl)-3-azabicyclo[4.1.0]hept-4-yl]methyl}-5-methyl-2-pyridinamine], for which, on human Orexin-1 receptor, the “fpKi Orexin 1 receptor” value came out at 9.3. For the same compound, the Ki on human Orexin-2 receptor was 3.98 nM. With `CCOc1ccc(C)nc1C(=O)N1C[C@@H]2C[C@@H]2C[C@H]1CNc1ncc(C(F)(F)F)cn1` [Example 56, N-[((1R,4S,6R)-3-{[3-(ethyloxy)-6-methyl-2-pyridinyl]carbonyl}-3-azabicyclo[4.1.0]hept-4-yl)methyl]-5-(trifluoromethyl)-2-pyrimidinamine], at human Orexin-1 receptor, the “fpKi Orexin 1 receptor” value amounted to 9.5. Take `Cc1ccc(C(=O)N2C[C@@H]3C[C@@H]3C[C@H]2CNc2ccc(C(F)(F)F)cn2)nc1-c1ncccn1` [Example 53, N-[((1R,4S,6R)-3-{[5-methyl-6-(2-pyrimidinyl)-2-pyridinyl]carbonyl}-3-azabicyclo[4.1.0]hept-4-yl)methyl]-5-(trifluoromethyl)-2-pyridinamine]: the “fpKi Orexin 1 receptor” value on human Orexin-1 receptor amounted to 6.0. The Ki at human Orexin-2 receptor is more than 3310 nM.

With `CCCOc1ccc(C)nc1C(=O)N1C[C@@H]2C[C@@H]2C[C@H]1CNc1cnc(C)c(C)n1` [Example 58, 5,6-dimethyl-N-[((1R,4S,6R)-3-{[6-methyl-3-(propyloxy)-2-pyridinyl]carbonyl}-3-azabicyclo[4.1.0]hept-4-yl)methyl]-2-pyrazinamine], the “fpKi Orexin 1 receptor” value at human Orexin-1 receptor is given as 9.0. At human Orexin-2 receptor, the Ki was 1.26 nM. Take “orexin-A: polypeptide ligand for the orexin-1 receptor; an agonist of the orexin receptors (QPLPDCCRQKTCSCRLYELLHGAGNHAAGILTL; ends and bridges not checked; cysteine pairing not given here; UniProt O43612 34-66, looked up)”: the “arousal (sleep/EEG)” value in the test with rats [3] is reported as “dose-related increase in arousal”. In the test with freely-feeding rats, the “increase of food intake over control rats receiving vehicle” value is “approximately four-fold”. As to `Cc1cnn(-c2ccc(C)nc2C(=O)N2C[C@@H]3C[C@@H]3C[C@H]2CNc2ccc(C(F)(F)F)cn2)c1` [Example 52, N-[((1R,4S,6R)-3-{[6-methyl-3-(4-methyl-1H-pyrazol-1-yl)-2-pyridinyl]carbonyl}-3-azabicyclo[4.1.0]hept-4-yl)methyl]-5-(trifluoromethyl)-2-pyridinamine], the “fpKi Orexin 1 receptor” value at human Orexin-1 receptor was 9.2. Further, the Ki at human Orexin-2 receptor was 0.398 nM. Take `CCCOc1ccc(C)nc1C(=O)N1C[C@@H]2C[C@@H]2C[C@H]1CNc1ncc(C(F)(F)F)cn1` [Example 57, N-[((1R,4S,6R)-3-{[6-methyl-3-(propyloxy)-2-pyridinyl]carbonyl}-3-azabicyclo[4.1.0]hept-4-yl)methyl]-5-(trifluoromethyl)-2-pyrimidinamine]: the “fpKi Orexin 1 receptor” value at human Orexin-1 receptor is reported as 9.5. For the same compound, the Ki on human Orexin-2 receptor was 63.1 nM.
